Data taken from patent US20050256152A1, “Salt of a sulfonic acid containing clopidogrel and use thereof for the production of pharmaceutical formulations” (priority 2003, published 2005).
Where a name gives a salt, the structure may show the parent alone. Read-outs that look alike come from different tables or passages of the source.

What was measured:
[1] = for stress stability result by HPLC, alkaline: 2 ml 1N NaOH, 5 hours
Method: (§1) 4.1 The stress stability of various salts of the clopidogrel was tested under different conditions. […] The following tests were conducted:
Then the flask is held either at room temperature for 5 hours or at 80° C. for 5 hours.
(§2) The result is determined by means of HPLC.
(§3) In all cases, the HPLC measurements were carried out under the following conditions with UV detection: […]

[2] = Method: as §1
50 mg of the salt concerned are weighed into a volumetric flask (100 ml) and held at 80° C. for 20 hours. After the end of each experiment and cooling to room temperature, the mobile phase is added up to 100 ml.
as §2, §3

[3] = 5 hours
Method: as §1
50 mg of the salt concerned are weighed into a volumetric flask (100 ml) and 2 ml of 3% H2O2 added. Then the flask is kept either at room temperature for 5 hours or at 80° C. for 5 hours. After the end of each experiment and, optionally, cooling to room temperature, the mobile phase is added up to 100 ml.
as §2, §3

[4] = 2 ml 1N HCl, 5 hours
Method: as §1
Then the flask is kept either at room temperature for 5 hours or at 80° C. for 5 hours.
as §2, §3

[5] = 2 ml water, 5 hours
Method: as §1
50 mg of the salt concerned are weighed into a volumetric flask (100 ml) and 2 ml of water added. Then the flask is kept either at room temperature for 5 hours or at 80° C. for 5 hours. After the end of each experiment and, optionally, cooling to room temperature, the mobile phase is added up to 100 ml.
as §2, §3

[6] = 40 and 60° C., 75% relative humidity, 15 days, FIG. 4
[7] = tables 1 to 4
[8] = 75% relative humidity

Compound | stress stability result by HPLC, alkaline ([1]; 80° C.) [%] | stress stability result by HPLC, alkaline ([1]; room temperature) [%] | stress stability result by HPLC, heat ([2]; solid salt, 80° C., 20 hours) [%] | stress stability result by HPLC, oxidising ([3]; 2 ml 3% H2O2, 80° C.) [%] | stress stability result by HPLC, oxidising ([3]; 2 ml 3% H2O2, room temperature) [%] | stress stability result by HPLC, acidic ([4]; 80° C.) [%] | stress stability result by HPLC, acidic ([4]; room temperature) [%] | stress stability result by HPLC, neutral ([5]; 80° C.) [%] | stress stability result by HPLC, neutral ([5]; room temperature) [%] | stress stability result by HPLC, heat ([2]; 20 h) [%] | content after 15 days (initial value normalised to 100%) ([8]; 40° C.) [%] | content after 15 days (initial value normalised to 100%) ([8]; 60° C.) [%] | further results
COC(=O)[C@H](c1ccccc1Cl)N1CCc2sccc2C1.O=S(=O)(O)c1ccccc1 [Clopidogrel Benzene Sulfonate (Amorphous)] | 25.04 | 0.64 | 11.52 | 2.94 | 0.83 | 2.36 | 0.64 | 3.01 | 0.85 | – | – | – | stability under alkaline conditions in comparison with the hydrogen sulfate and hydrochloride salts ([1]; alkaline conditions): considerably increased stability
COC(=O)[C@H](c1ccccc1Cl)N1CCc2sccc2C1.O=S(=O)(O)c1ccccc1 [Clopidogrel Benzene Sulfonate (Crystalline)] | 28.05 | 0.14 | 4.52 | 3.98 | 0.13 | 2.76 | 0.14 | 4.18 | 0.19 | – | – | – | stability (decrease of content), compared with hydrogen sulfate and hydrochloride [6]: best stability values; stability in comparison with other salts (stress tests) [7]: even more stable than clopidogrel hydrogen sulfate
COC(=O)[C@H](c1ccccc1Cl)N1CCc2sccc2C1 [Clopidogrel Hydrochloride, clopidogrel hydrochloride, reference compound] | – | – | – | – | – | – | – | – | – | 32.43 | 93.66 | 42.54 | –
COC(=O)[C@H](c1ccccc1Cl)N1CCc2sccc2C1 [Clopidogrel Hydrogen Sulfate, clopidogrel hydrogen sulfate, reference compound] | – | – | – | – | – | – | – | – | – | 0.31 | – | – | –
Clopidogrel besylate | – | – | – | – | – | – | – | – | – | – | 103.32 | 66.48 | –
Clopidogrel mesylate | – | – | – | – | – | – | – | – | – | – | 97.56 | 17.11 | –
